Test results published in patent US9243021B2, “Galactoside inhibitor of galectins” (University of Edinburgh, priority 2012, dated 2016).

Key:
β-catenin activation = experiment: TGF-β1-induced β-catenin activation in primary alveolar epithelial cells (western blot); format: cell-based, mouse; conditions: primary alveolar epithelial cells from WT mice, TGF-β1, 10 μM TD139
Procedure: Primary alveolar epithelial cells from WT mice were plated and treated with TGF-β1 in the presence or absence of 10 μM TD139. FIG. 1D) Cells were lysed and analyzed for active β-catenin, total β-catenin and β-actin by western blot.
Treated and control mouse type II lung alveolar epithelial cells (AECs) were extracted following a standard method. Briefly, 1 ml of 50 U/ml dispase (BD Biosciences) was administered intratracheally into perfused lungs followed by instillation of 0.5 ml of 1% low melting point agarose. The agarose within the upper airways was allowed to set on ice for 2 minutes and the lungs were placed in 4 ml 50 U/ml dispase for 45 min at room temperature. The lung lobes minus the upper airways were then dispersed in DMEM containing 50 μg/ml DNAse I (Sigma-Aldrich, UK). The cell suspension was passed through a 100 μm cell strainer and the cells washed in DMEM followed by resuspension in DMEM containing 10% FCS. The cell suspension was plated onto tissue culture plastic for 1 h to allow any contaminated fibroblasts and macrophages to adhere. Non-adherent epithelial cells were counted and cultured for 2 days on tissue culture plastic or cover-slips pre-coated with 5 μg/ml collagen (AMS Biotechnology) and 10 μg/ml fibronectin (Sigma-Aldrich), Cells were washed three times in PBS before treatment. […]

[1] = tested on: bleomycin induced lung fibrosis; experiment: Model of bleomycin-induced lung fibrosis; format: in vivo, mouse; conditions: female C57/Bl6 mice, intratracheal on days 18, 20, 22 and 24, lungs harvested day 26
Procedure: Female C57/Bl6 mice (10-14 weeks old) were anaesthetized with halothane, and bleomycin or saline was administered intratracheally (33 μg in 50 μl of saline) and lungs were harvested on day 26. TD139 was instilled into the lungs of mice on days 18, 20, 22 and 24 of bleomycin induced lung injury. Fibrosis was assessed by histological score of collagen stained lung sections and by total collagen content by Sircol assay.
Mice were treated with bleomycin (bleo) or saline (control) and bleomycin treated mice were treated with 200 mg/kg pirfenidone twice daily on days 18-24. TD139 was administered intratracheally on days 18, 20, 22 and 24. Lungs were harvested on day 26.
Histological lung inflammation and fibrosis score were carried out in Masson's trichrome stained sections. Inflammation (peribronchiolar, perivascular, and alveolar wall thickness) scored in >5 random fields at magnification×630 using the following system (peribronchiolar and perivascular, 1=no cells, 2=<20 cells, 3=20-100 cells, 4=>100 cells; alveolar wall thickness, 1=no cells, 2=2-3 cells thick, 3=4-5 cells thick, 4=>5 cells thick). The combined inflammatory score was the sum of these scores. Fibrosis score was evaluated as the area of the section positively stained for collagen (1=none, 2=<10%, 3=<50%, 4=>50%). Only fields where the majority of the field was composed of alveoli were scored. […]

[2] = half-life by route of administration; format: in vivo; conditions: mice
galectin-3 = galectin-3 (Homo sapiens, UniProt P17931)
galectin-3, sequence (P17931 whole entry): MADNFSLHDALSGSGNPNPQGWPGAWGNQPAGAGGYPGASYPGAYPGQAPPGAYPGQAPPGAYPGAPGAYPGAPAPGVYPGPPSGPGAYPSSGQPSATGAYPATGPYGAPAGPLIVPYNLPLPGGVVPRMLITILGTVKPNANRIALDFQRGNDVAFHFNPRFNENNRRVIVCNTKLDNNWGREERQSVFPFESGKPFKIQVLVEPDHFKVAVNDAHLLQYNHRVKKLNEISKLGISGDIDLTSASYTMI

OC[C@H]1O[C@@H](S[C@@H]2O[C@H](CO)[C@H](O)[C@H](n3cc(-c4cccc(F)c4)nn3)[C@H]2O)[C@H](O)[C@@H](n2cc(-c3cccc(F)c3)nn2)[C@H]1O [TD139, Bis-{3-deoxy-3-[4-(3-fluorophenyl)-1H-1,2,3-triazol-1-yl]-β-D-galactopyranosyl}sulfane]
TGF-β-induced β-catenin activation in vitro (β-catenin activation): blocked
bleomycin induced lung fibrosis in vivo [1]: blocked
half-life, pulmonary route compared with i.v. or s.c. routes [2]: considerably longer half-life
galectin-3 inhibitor (galectin-3): inhibitor
